Experimental data from patent US20020037858A1, “Pharmaceutical compositions comprising moexipril magnesium” (priority 2000, published 2002).

Test: Stability of moexipril magnesium salt in solid compositions
Assay type: physicochemical
Conditions: solid compositions without an alkaline stabilizing compound in the final composition

In the case of `CCOC(=O)[C@H](CCc1ccccc1)N[C@@H](C)C(=O)N1Cc2cc(OC)c(OC)cc2C[C@H]1C(=O)O.[Mg]` [moexipril magnesium], the “stability of the salt” value is reported as “sufficiently stable to enable stable solid compositions”.
